The text below walks through data of patent US11414395B2, “Heterocyclic compounds as modulators of mGluR7” (PRAGMA Therapeutics, priority 2017, dated 2022).

By IC50 is commonly meant the concentration needed to halve the response being measured.

Bounds are passed on as bounds.

This assay deals with human mGluR7 (Homo sapiens (Human), UniProt Q14831). The experiment in a line: Inositol monophosphate production assay (IP1 assay), inhibition of L-AP4 response. In kind it is cell-based. The settings on record: mean IC50 from at least two independent experiments; HEK293 cells transiently transfected with mGluR7, Gqtop and EAAC1; IP1 production vs EC80 L-AP4. In a few lines: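 HEK293 cells transiently co-expressing mGluR7, chimeric Gq/Gi (Gqtop) and EAAC1, switched to Glutamax medium 3 h before stimulation. IP1 measured by competitive HTRF; inhibition of an EC80-equivalent L-AP4 response, triplicate points, four-parameter fit to log IC50, mean of ≥2 experiments.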
Sequence of human mGluR7 (Q14831 35-915): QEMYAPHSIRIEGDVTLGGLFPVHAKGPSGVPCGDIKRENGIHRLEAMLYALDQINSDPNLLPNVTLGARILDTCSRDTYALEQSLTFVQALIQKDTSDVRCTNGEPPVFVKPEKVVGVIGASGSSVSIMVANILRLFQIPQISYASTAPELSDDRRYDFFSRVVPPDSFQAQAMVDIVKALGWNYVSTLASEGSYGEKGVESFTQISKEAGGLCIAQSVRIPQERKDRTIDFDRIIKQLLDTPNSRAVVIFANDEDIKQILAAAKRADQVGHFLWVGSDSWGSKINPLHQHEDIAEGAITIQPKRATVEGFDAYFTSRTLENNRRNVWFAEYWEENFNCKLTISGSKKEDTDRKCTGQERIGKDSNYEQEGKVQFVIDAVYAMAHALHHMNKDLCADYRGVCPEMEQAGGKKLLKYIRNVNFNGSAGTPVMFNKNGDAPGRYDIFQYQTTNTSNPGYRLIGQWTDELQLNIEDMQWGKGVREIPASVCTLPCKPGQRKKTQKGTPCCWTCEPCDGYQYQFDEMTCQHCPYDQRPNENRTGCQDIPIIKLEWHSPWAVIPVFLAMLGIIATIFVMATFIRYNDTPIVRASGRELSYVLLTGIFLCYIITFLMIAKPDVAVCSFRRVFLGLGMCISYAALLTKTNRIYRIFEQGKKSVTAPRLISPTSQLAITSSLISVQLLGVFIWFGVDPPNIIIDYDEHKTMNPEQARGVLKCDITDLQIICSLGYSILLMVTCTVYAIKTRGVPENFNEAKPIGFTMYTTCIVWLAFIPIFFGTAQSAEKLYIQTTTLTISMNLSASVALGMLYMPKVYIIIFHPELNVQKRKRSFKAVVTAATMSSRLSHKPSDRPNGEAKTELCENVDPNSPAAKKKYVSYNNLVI

Consider `COc1cccc(C2CCc3c(cnn(-c4ncc(OCCO)cn4)c3=O)C2)c1C` (centres unmarked) [Example 119, 2-(5-(2-hydroxyethoxy)pyrimidin-2-yl)-6-(3-methoxy-2-methylphenyl)-5,6,7,8-tetrahydrophthalazin-1(2H)-one], for which the IC50 was less than 500 nM.

`CC(=O)c1cccc(C2CCc3c(cnn(-c4ncccn4)c3=O)C2)c1C` (centres unmarked) [Example 120, 6-(3-acetyl-2-methylphenyl)-2-(pyrimidin-2-yl)-5,6,7,8-tetrahydrophthalazin-1(2H)-one] displayed an IC50 of 1000 to 30000 nM. For the molecule `Cc1ccc(C2Cc3cnn(-c4ccccn4)c(=O)c3C2)c(C)c1` (centres unmarked) [Example 121, 6-(2,4-dimethylphenyl)-2-(pyridin-2-yl)-2,5,6,7-tetrahydro-1H-cyclopenta[d]-pyridazin-1-one], the IC50 fell in the range of 1000 to 30000 nM.

`Cc1ccc(C2CCc3c(ncn(-c4ccccn4)c3=O)C2)c(C)c1` (centres unmarked) [Example 122, 7-(2,4-dimethylphenyl)-3-(pyridin-2-yl)-5,6,7,8-tetrahydroquinazolin-4(3H)-one] yielded an IC50 of less than 500 nM. The result for `O=c1c2c(cnn1-c1ncccn1)CC(c1cccc3c1ccn3C1CC1)CC2` (centres unmarked) [Example 124, 6-(1-cyclopropyl-1H-indol-4-yl)-2-(pyrimidin-2-yl)-5,6,7,8-tetrahydrophthalazin-1(2H)-one] reads less than 500 nM; that for `COc1cccc(C2CCc3c(cnn(-c4ncc(C5CC5)cn4)c3=O)C2)c1C` (centres unmarked) [Example 125, 2-(5-cyclopropylpyrimidin-2-yl)-6-(3-methoxy-2-methylphenyl)-5,6,7,8-tetrahydrophthalazin-1(2H)-one], less than 500 nM; that for `Cc1c(OC2CC2)cccc1C1CCc2c(cnn(-c3ncc(Br)cn3)c2=O)C1` (centres unmarked) [Example 126, 2-(5-bromopyrimidin-2-yl)-6-(3-cyclopropoxy-2-methylphenyl)-5,6,7,8-tetrahydrophthalazin-1(2H)-one], less than 500 nM. `CC(=O)Nc1cnc(-n2ncc3c(c2=O)CCC(c2cccc(OC4CC4)c2C)C3)nc1` (centres unmarked) [Example 127, N-(2-(6-(3-cyclopropoxy-2-methylphenyl)-1-oxo-5,6,7,8-tetrahydrophthalazin-2(1H)-yl)pyrimidin-5-yl)acetamide] returned an IC50 of less than 500 nM.
